This is an account of results in US5628328A, “Method for measuring muscle mass” (priority 1995, dated 1997).

The nature of series [1]: Safety and excretion of administered D3-3-methylhistidine. To be noted: small quantities administered.
The conditions of series [2]: in vivo.
Procedure: The diversity of models between cattle, dogs and humans and sheep and pigs reflects differences in known physiology. In each species the tracer is injected into compartment 1 which, based on size (volume and mass), is similar to plasma and extracellular water space. Compartment 1 was the sampling compartment and the compartment from which the steady state calculations were initiated. All models for each species can be resolved by sampling only plasma, except in sheep--the model in FIG. 4 required the sampling of plasma and urine. However, the sheep model can be resolved from plasma kinetics of 3-methylhistidine if the rate of exit from compartment 1 is fixed. From the steady state calculations the de novo production of 3-methylhistidine was obtained into compartment 3 for humans, cattle and dogs and into compartment 2 for sheep and pigs. The de novo production of 3-methylhistidine could be placed as an entry into compartment 2 and an identical rate calculated. The compartment identity of compartment 2 and 3 is intracellular pools of 3-methylhistidine. The metabolic form of 3-methylhistidine in these compartments may not be identical nor is the identity of compartment 2 or 3 for one species the same identity for another species (i.e., cattle vs. sheep). The models also depict differences in the route by which 3-methylhistidine exits the system. […]
For series [3] the following is noted: in vivo. The source holds these as a separate data set.
On the set-up of series [4]: species or system human. The settings on record: in vivo. From the text:
Normal volunteers with no evidence or history of diabetes mellitus or of cardiac, liver, renal or pulmonary diseases were studied. The subjects consisted of 3 males and 1 female, ranging in age from 31 to 37 years, in body weight from 47 to 92 kg, and in body mass index (BMI) from 19.2 to 25.5. The purpose and possible risks of the study were explained to all subjects, and their voluntary written consent was obtained. The study protocol was approved by the Committee for the Protection of Human Subjects of the Institutional Review Board at Vanderbilt University School of Medicine. All studies were performed at the Clinical Research Center (CRC). Subjects were placed on balanced weight-maintenance diets for at least one week before the start of the study. Meat was excluded from the subjects' diets for three days before the study and during the study.
All studies were performed after a 10-12 hour overnight fast. On the morning of the experiment (6.30 to 7.00 hours), an 18-gauge Angiocatheter™ (Benton Dickinson, Sandy, Utah) was placed in a superficial hand vein of the nondominant arm for blood sampling. The hand was heated to 55° C. to ensure complete arterialization (Abumrad, N.N. et al., "Use of a heated superficial hand vein as an alternative site for the measurement of amino acid concentrations and for the study of glucose and alanine kinetics in man," Metabolism (1981) 30:936-940). In addition, a 16-gauge angiocatheter was inserted into the contralateral forearm vein for the infusion of L-3-[methyl-^2 H3 ]-histidine (MSD Isotopes, Montreal, Canada). Finally, another catheter was threaded retrograde into the brachial vein of the dominant arm and used for sampling of the forearm tissue.
Each study was four days in duration. Starting at t=0 (8.00 hours), subjects were administered a bolus infusion of L-3-[methyl^2 H3 ]-histidine (D3 -3-methylhistidine) at 0.13 μmol/kg into the forearm vein of the dominant arm. The infusate was passed through a Millex-GS sterilizing filter (0.22 μm; Millipore Products Divisions, Bedford, Mass.) before the infusion. Blood samples were obtained from the superficial hand vein and from the deep forearm vein at 0, 1, 2, 5, 10, 15, 30, 45, 90, 150, 210, 270, 330, and 720 min. postinjection. During this time, the subjects were required to stay at the Clinical Research Center, although they were allowed to ambulate freely within their rooms. Free access to food and drink was allowed after the 330-min sample. After 720 min, the catheters were removed and the patients were allowed to go home. For the following three days, the subjects returned to the CRC each morning before eating for further blood sampling by percutaneous venous puncture at 1,440, 2,880, and 4,320 min postinjection. Urine was collected over 24 hour periods the day before and for three days after tracer infusion.
Blood was collected in heparinized syringes, transferred to tubes containing Na2 EDTA (15 mg/tube), and centrifuged. The plasma obtained was immediately placed on ice. An aliquot of the plasma was processed for determination of 3-methylhistidine concentration as well as the L-3-[methyl-^2 H3 ]-histidine:3-methylhistidine isotope enrichment. The remainder of the plasma was frozen at -70° C. The urine obtained was processed for the determination of creatinine both as a measure of the completeness of the collection (Pencharz, P. B. et al., "The effect of an energy-restricted diet on the protein metabolism of obese adolescents: nitrogen-balance and whole-body nitrogen turnover," Clin. Sci. (1980) 59:13-18), and for the estimation of lean body mass (Blackburn, G. L. et al., "Nutritional and metabolic assessment of hospitalized patients," J. Parenter. Enteral. Nutr. (1977) 1:11-22). […]

For series [5] the following is noted: rat; cited from earlier work.
The conditions of series [6]: adult human; cited from earlier work.

Turning to `[2H]C([2H])([2H])n1cnc(C[C@H](N)C(=O)O)c1` [D3-3-methylhistidine, 3-[^2 H3-methyl]-methylhistidine], the Toxicity entry in series [1] is reported as “non-toxic”. Further, in series [2], the “Exponential decay curve of tracer” value is “rapid decay over the first 2-3 hours, followed by a slower decay through 12 hours, and a steady state decay over the remainder of the study”. In addition, the Urinary excretion result in series [3] is given as “quantitatively excreted in urine”. In addition, the “Decay of D3-3-methylhistidine:3-methylhistidine ratio in plasma” value in series [4] was “rapid decrease in the D3- 3-methylhistidine:3-methylhistidine ratio during the first 5 hours followed by a slow linear (semilog plot) decay over the three days of blood sampling”.
As for N-acetyl-3-methylhistidine, in series [5], the “Form excreted in urine” value is reported as “major form excreted in the rat”. Also, the “Share of daily 3-methylhistidine excreted” value in series [6] was “less than 5%”.
